From PubChem BioAssay AID1188 (EPA DSSTox, 2008) come the findings set out here.

The source made the active and inactive calls.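 Rule for the calls: active = a concentration killing half the fathead minnows in the acute test was determined; inconclusive = some fish died but not half at top dose; inactive = no fish died even at top dose.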

This data set has as its system Fathead minnow (Pimephales promelas) acute toxicity, lethality. In words: DSSTox (EPAFHM) EPA Fathead Minnow Acute Toxicity. In short, it runs like this:
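Activity score is an integer 1–100 scaling of log10(1/LC50 in mmol) between dataset minimum and maximum, highest potency = 100. Underlying LC50 values (mg) come from the U.S. EPA MED database.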
For the compound `O=[N+]([O-])c1ccccc1`, the Potency is 967 µM. As for `CCNCc1ccccc1`, the Potency was 422 µM. On the same count and under the same terms, the value for `CC(C)(O)C(Cl)(Cl)Cl` was 362 µM; that for `Cc1cc(C)c(C#N)c(=O)[nH]1` was 1060 µM; that for `CC(=O)c1cccn1C` was 1280 µM. Same read-out and setting: as for `CCCCOC(=O)CCC(=O)OCCCC`, the figure is 19.4 µM; as for `Oc1c(Cl)cc(Cl)c(Cl)c1Cc1c(O)c(Cl)cc(Cl)c1Cl`, 0.0516 µM.

Consider `O=P(Oc1c(Cl)cccc1Cl)(Oc1c(Cl)cccc1Cl)Oc1c(Cl)cccc1Cl`, for which the outcome was “inactive; moa not determined either due to lack of toxicity at saturation or late test res”. With `O=[N+]([O-])c1ccc(O)cc1`, the Potency is 322 µM. The same measure, in the same setting: the value for `CCCCCCCCCO` was 39.5 µM; that for `CC(C)(C)SC(C)(C)C` was 199 µM; that for `Oc1ccc(Oc2ccc(O)cc2)cc1` was 28.6 µM. For `CCOP(=O)(Cc1ccccc1)OCC`, the Potency was 1470 µM. Same read-out and setting: the value for `Brc1ccsc1` was 38 µM; that for `CCCCN` was 3660 µM; that for `CCSCCCCSCC` was 34 µM. The same measure, in the same setting: as for `CCCC(C)C=O` (stereo not drawn), the figure is 188 µM; as for `CCOCCOC(C)=O`, 319 µM; as for `COC(=O)c1ccc(C(=O)OC)c([N+](=O)[O-])c1`, 27.3 µM.

Consider `CCN(CC)c1ccc(C=O)c(O)c1`, for which the Potency is 27.7 µM.

Consider `CC(=O)Nc1cccc(O)c1`, for which the Potency is 7480 µM. As to `Cc1ccc([N+](=O)[O-])c(OP(=O)(Oc2cc(C)ccc2[N+](=O)[O-])Oc2cc(C)ccc2[N+](=O)[O-])c1`, the outcome was “inactive; moa not determined either due to lack of toxicity at saturation or late test res”.

For `CC1(C)C(C=C(Cl)Cl)C1C(=O)OCc1cccc(Oc2ccccc2)c1` (stereo not drawn), the Potency was 0.0409 µM. For `c1ccccc1`, the Potency is 225 µM. `OCC(Cl)(Cl)Cl`: the Potency is 2000 µM. Still for that read-out and setting: as for `CC(C)SSC(C)C`, the figure is 55.3 µM; as for `CCCCSCCCC`, 24.5 µM. Same read-out and setting: as for `O=Cc1ccc(O)cc1O`, the figure is 95 µM; as for `CC(=O)C(C)CN(C)C` (stereo not drawn), 65.8 µM.

In the case of `O=S(c1ccc(Cl)cc1)c1ccc(Cl)cc1`, the outcome is “inactive; moa not determined either due to lack of toxicity at saturation or late test res”. In the case of `c1cc2c3c(cccc3c1)CC2`, the Potency is 11.2 µM. For `Clc1cc(Cl)c(SSc2cc(Cl)c(Cl)cc2Cl)cc1Cl`, the outcome was “inactive; moa not determined either due to lack of toxicity at saturation or late test res”. On the same count and under the same terms, as for `CCCCCCCCCCCCc1ccc(N)cc1`, the entry is “inactive; moa not determined either due to lack of toxicity at saturation or late test res”. Turning to `NC(=O)c1ccc([N+](=O)[O-])cc1`, the Potency was 801 µM. Same read-out and setting: as for `N#Cc1cc(Cl)c(O)c(Cl)c1`, the figure is 129 µM. For the compound `Cc1cc(Oc2ccc([N+](=O)[O-])cc2)ccc1Cl`, the outcome was “inactive; moa not determined either due to lack of toxicity at saturation or late test res”. The same measure, in the same setting: as for `CN(C)c1ccc(P(=O)(c2ccc(N(C)C)cc2)c2ccc(N(C)C)cc2)cc1`, the entry is “inactive; moa not determined either due to lack of toxicity at saturation or late test res”.

With `NC(=O)c1ccccc1N`, the Potency was 2900 µM. For `CC(=O)CC(C)C`, the Potency was 5210 µM. Still for that read-out and setting: as for `CC(=O)OC(C)(C)C`, the figure is 2820 µM; as for `CNC(=O)O/N=C/C(C)(C)SC`, 4.52 µM; as for `C[CH2][Sn]([CH2]C)([CH2]C)[CH2]C`, 0.0468 µM. The same measure, in the same setting: as for `Cc1ccc(C)cc1`, the figure is 83.5 µM. Still for that read-out and setting: as for `C#CC(C)(O)C(C)C` (stereo not drawn), the figure is 1830 µM; as for `CCOC(=O)CC(SP(=S)(OC)OC)C(=O)OCC` (stereo not drawn), 42.7 µM; as for `O=C(O)C[n+]1ccccc1`, 933 µM. For the compound `C=CC(=O)OC1CCCCC1`, the Potency is 9.6 µM.

With `C=C[C@@](C)(O)CC[C@H]1C(=C)CC[C@H]2C(C)(C)CCC[C@]12C`, the Potency was 0.413 µM. Still for that read-out and setting: as for `CCC1(c2ccccc2)C(=O)NC(=O)NC1=O`, the figure is 2080 µM.

Consider `C(/C=C/c1ccccc1)=C\c1ccccc1`, for which the outcome is “inactive; moa not determined either due to lack of toxicity at saturation or late test res”.

For `O=Cc1ccc([N+](=O)[O-])cc1`, the Potency was 66.8 µM. The same measure, in the same setting: the value for `O=Cc1ccccc1[N+](=O)[O-]` was 95.3 µM; that for `N#Cc1cccc(C(F)(F)F)c1` was 279 µM. For `CCCCCCC(=O)CCCCCC`, the outcome is “inactive; moa not determined either due to lack of toxicity at saturation or late test res”. Take `CCCCOC(=O)c1cccc(C(=O)OCCCC)c1`: the Potency is 3.23 µM. Regarding `CNC(=O)O/N=C(\SC)C(=O)N(C)C`, the Potency is 30.9 µM. On the same count and under the same terms, the value for `C#CCC(C)O` (stereo not drawn) was 417 µM; that for `CCCCOC(=O)/C=C/C(=O)OCCCC` was 2.76 µM.
